Results: article PMC4986690 (Analytical chemistry, 2015)

Legend:
[1] = target: human serum albumin (HSA) (Homo sapiens, UniProt P02768); assay: ultrafast affinity extraction, two-dimensional HSA microcolumns, UV […] nm; assay type: binding
[2] = target: T1, sex hormone binding globulin (SHBG) (Homo sapiens, UniProt P04278)
T1 sequence (P04278 30-402): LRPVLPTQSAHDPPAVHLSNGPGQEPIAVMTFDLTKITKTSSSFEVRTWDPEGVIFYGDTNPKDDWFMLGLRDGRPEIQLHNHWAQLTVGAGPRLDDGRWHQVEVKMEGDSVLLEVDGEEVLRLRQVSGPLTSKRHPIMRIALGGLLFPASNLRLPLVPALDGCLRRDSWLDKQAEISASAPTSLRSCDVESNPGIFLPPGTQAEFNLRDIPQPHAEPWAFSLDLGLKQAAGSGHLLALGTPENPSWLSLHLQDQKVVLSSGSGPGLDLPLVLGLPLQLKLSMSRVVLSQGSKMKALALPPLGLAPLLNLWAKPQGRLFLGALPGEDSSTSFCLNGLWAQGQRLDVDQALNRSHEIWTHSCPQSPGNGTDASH

Chain of human serum albumin (HSA) (P02768 25-609): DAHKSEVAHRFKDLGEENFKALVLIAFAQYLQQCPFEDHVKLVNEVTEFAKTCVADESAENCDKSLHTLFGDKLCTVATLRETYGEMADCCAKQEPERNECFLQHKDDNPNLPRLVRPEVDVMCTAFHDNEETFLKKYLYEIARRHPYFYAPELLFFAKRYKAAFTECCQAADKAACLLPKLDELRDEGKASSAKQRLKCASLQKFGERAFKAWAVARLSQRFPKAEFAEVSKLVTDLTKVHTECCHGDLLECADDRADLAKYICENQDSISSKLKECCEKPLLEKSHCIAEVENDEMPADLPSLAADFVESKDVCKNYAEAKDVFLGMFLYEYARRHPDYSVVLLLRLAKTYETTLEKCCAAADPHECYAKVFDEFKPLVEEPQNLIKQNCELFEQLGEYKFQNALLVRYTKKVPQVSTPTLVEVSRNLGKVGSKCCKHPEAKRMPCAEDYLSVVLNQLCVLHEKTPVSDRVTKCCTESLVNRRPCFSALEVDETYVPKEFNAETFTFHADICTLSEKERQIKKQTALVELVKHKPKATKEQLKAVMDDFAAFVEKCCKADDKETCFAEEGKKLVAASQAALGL

C[C@]12CC[C@H]3[C@@H](CCC4=CC(=O)CC[C@@]43C)[C@@H]1CC[C@@H]2O [testosterone]
Kd [1]: 31.2 µM
Kd [2]: 0.909 nM
